Counter-ions that a name gives are not always drawn. Like-named read-outs stand apart in the source and are kept apart here. Each block holds one molecule with its values, some of them ahead of it.
Key:
[1] = system: choline oxidase derived from B. album KY 4319; assay: Substrate specificity of choline oxidase; type: biochemical, Brevibacterium album; settings: enzyme 1.5 U/ml; activity on choline chloride defined as 100
Protocol: (§1) The activity of choline oxidase in the experimental examples and the following examples is determined by oxidizing choline with choline oxidase to produce hydrogen peroxide, decomposing hydrogen peroxide with peroxidase in the presence of phenol and 4-aminoantipyrine to produce the pigment, and measuring the absorbancy of the pigment solution as described below.
(§2) Choline oxidase is dissolved in 0.05 mol/L Tris buffer having a pH of 8.0 to make up a specific concentration (1.5 and 0.4 U/ml respectively in case of choline oxidase derived from KY 4319 and KY 3505 strains). The solutions are then subjected to the same determination of choline oxidase as described above except that the various substances other than choline chloride shown in Table 3 are used as a substrate. The relative activities on the various substrates are calculated by defining the activity on choline chloride as 100.

[2] = system: choline oxidase derived from C. murisepticum KY 3505; assay: Substrate specificity of choline oxidase; type: biochemical, Corynebacterium murisepticum; settings: enzyme 0.4 U/ml; activity on choline chloride defined as 100
Protocol: as §1, §2

[3] = system: choline oxidase derived from Brevibacterium album KY 4319; settings: for oxygen consumed per 1 mol of substrate (concluded stoichiometry): conclusion from Table 3; for Amount of O2 uptake [B]: 37° C., pH 8.0
Protocol: (§3) In the following Experiment (1) and (2), choline oxidase, derived from Brevibacterium album KY 4319 is used.
Then, 0.5 ml of 0.05 mol/L Tris buffer (pH 8.0) containing 1.5 U/ml of choline oxidase is put in the side arm, and reaction is carried out at 37° C. During the reaction, the amount of oxygen uptake (volume) is measured at regular intervals of time. The reaction is completed in 30-40 minutes.

[4] = system: Brevibacterium album KY 4319
Protocol: A 0.05 mol/L Tris buffer solution (pH 8.0) containing 0.01 mol/L of 4-aminoantipyrine, 0.01 mol/L of phenol and 5000 U/L of peroxidase is prepared and used as color-forming liquid. […] Reaction is carried out at 37° C. for 20 minutes and then the absorbancy of the solution is measured at 500 nm. The amount of the reacted choline chloride is calculated based on the measured value. The enzyme activity is expressed by "U" which is defined as the amount of enzyme which will decompose 1 μmole of choline in 1 minute under the above-described conditions.

[5] = system: choline oxidase derived from Brevibacterium album KY 4319; settings: for hydrogen peroxide produced from 1 mol of substrate (concluded stoichiometry): conclusion from Table 4; for Amount of hydrogen peroxide [B']: 37° C., 20 minutes, pH 8.0
Protocol: as §3
In this experiment, 0.05 mol/L Tris buffer (pH 8.0) containing 0.001 mol/L of 4-aminoantripyrine, 0.001 mol/L of phenol and 50 mg/L of peroxidase is used as a color-forming liquid. […] The absorbancy of the reaction mixture is measured at 500 nm. The amount of hydrogen peroxide produced is calculated based on the measured value. The ratio of the amount of the hydrogen peroxide produced (μmol) to the amount of the charged substrate (μmol) is shown in Table 4.

[6] = system: Corynebacterium murisepticum KY 3505
Protocol: as §1
In this experimental example, Brevibacterium album KY 4319 and Corynebacterium murisepticum KY 3505 are used. 10 ml portions of a nutrient medium having the following composition are poured into 70 ml-test tubes and sterilized at 120° C. for 15 minutes.
One loopful of the above strains are separately inoculated into the medium in the test tubes, and culturing is carried out with shaking at 30° C. for […].
After the completion of culturing, each of the culture liquors is subjected to centrifugation. The resultant microbial cells are suspended in 10 ml of 0.05 mol/L Tris buffer having a pH of 8.0 and disrupted by ultrasonic generator. The resultant mixture is subjected to centrifugation and choline oxidase activity of the supernatant is measured.

[7] = system: choline oxidase derived from B. album KY 4319
Protocol: An approximately 4 ml-reactor for measurement of oxygen absorption is kept at 37° C. and an oxygen electrode is inserted therein. Choline oxidase is dissolved in 0.05 mol/L Tris buffer having a pH of 8.0 to make up a concentration of 0.8 U/ml. […] The concentration of oxygen dissolved in the solution is recorded continuously by recorder while stirring the solution. Decrease in oxygen concentration for 5 minutes after the start of the reaction is calculated.
The same procedure as above is repeated except that sodium azide is not added (control).

[8] = choline chloride 0.5 g/dl (36 mmol/L) in medium
[9] = choline chloride 1.0 g/dl (72 mmol/L) in medium
[10] = choline chloride 5.0 g/dl (360 mmol/L) in medium
[11] = choline chloride 10.0 g/dl (720 mmol/L) in medium

Substrate specificity (relative activity %) [1]: 1.0%
Substrate specificity (relative activity %) [2]: 0%
SMILES: CNCCO [2-methylaminoethanol, 2-methyl-aminoethanol]

SMILES: C[N+](C)(C)CCO.[Cl-] [choline chloride]
oxygen consumed per 1 mol of substrate (concluded stoichiometry) [3]: 2 mol
[B]/[A] (O2 uptake / charged substrate) ([3]; substrate 1.25 μmol): 1.87
Amount of O2 uptake [B] ([3]; substrate 1.25 μmol): 2.34 µmol
[B]/[A] (O2 uptake / charged substrate) ([3]; substrate 2.50 μmol): 1.89
Amount of O2 uptake [B] ([3]; substrate 2.50 μmol): 4.72 µmol
[B]/[A] (O2 uptake / charged substrate) ([3]; substrate 5.00 μmol): 1.91
Amount of O2 uptake [B] ([3]; substrate 5.00 μmol): 9.56 µmol
amount of oxygen consumed by 1 mol of substrate ([3]; summary of Table 3): 1.87 to 1.91 mol
Activity of choline oxidase ([4]; choline chloride 0.1 g/dl (7.2 mmol/L) in medium, 30° C. culture, supernatant of disrupted cells): 13.0 U/dl
Activity of choline oxidase [4, 8]: 35.4 U/dl
Activity of choline oxidase [4, 9]: 32.7 U/dl
Activity of choline oxidase [4, 10]: 23.4 U/dl
Activity of choline oxidase [4, 11]: 15.1 U/dl
hydrogen peroxide produced from 1 mol of substrate (concluded stoichiometry) [5]: 2 mol
[B']/[A'] (hydrogen peroxide produced / charged substrate) ([5]; substrate 0.045 μmol): 1.80
Amount of hydrogen peroxide [B'] ([5]; substrate 0.045 μmol): 0.081 µmol
[B']/[A'] (hydrogen peroxide produced / charged substrate) ([5]; substrate 0.090 μmol): 1.67
Amount of hydrogen peroxide [B'] ([5]; substrate 0.090 μmol): 0.150 µmol
[B']/[A'] (hydrogen peroxide produced / charged substrate) ([5]; substrate 0.180 μmol): 1.72
Amount of hydrogen peroxide [B'] ([5]; substrate 0.180 μmol): 0.310 µmol
amount of hydrogen peroxide produced from 1 mol of substrate ([5]; summary of Table 4): 1.67 to 1.80 mol
Substrate specificity (relative activity %) [1]: 100%
Activity of choline oxidase ([6]; choline chloride 0.1 g/dl (7.2 mmol/L) in medium): 6.4 U/dl
Activity of choline oxidase [6, 8]: 9.3 U/dl
Activity of choline oxidase [6, 9]: 17.1 U/dl
Activity of choline oxidase ([6]; choline chloride 2.0 g/dl (144 mmol/L) in medium): 17.5 U/dl
Activity of choline oxidase [6, 10]: 12.8 U/dl
Activity of choline oxidase [6, 11]: 6.7 U/dl
Substrate specificity (relative activity %) [2]: 100%

Substrate specificity (relative activity %) [1]: 0%
Substrate specificity (relative activity %) [2]: 0%
SMILES: CNCC(=O)O [sarcosine]

SMILES: CC(=O)OCC[N+](C)(C)C.[Cl-] [acetylcholine chloride]
Substrate specificity (relative activity %) [1]: 0%
Substrate specificity (relative activity %) [2]: 0%

SMILES: CN(C)CCO [2-dimethylaminoethanol, 2-dimethyl-aminoethanol]
Substrate specificity (relative activity %) [1]: 7.3%
Substrate specificity (relative activity %) [2]: 8.5%

SMILES: [N-]=[N+]=[N-] [sodium azide]
Inhibitor [7]: Inhibitor
enzyme activity inhibited, compared with the control ([7]; 1.7×10^-3 mol/L sodium azide, 37° C., pH 8.0, 5 minutes): 44.4%

SMILES: C[N+](C)(C)CC=O [betaine aldehyde]
oxygen consumed per 1 mol of substrate (concluded stoichiometry) [3]: 1 mol
[B]/[A] (O2 uptake / charged substrate) ([3]; substrate 1.25 μmol): 0.88
Amount of O2 uptake [B] ([3]; substrate 1.25 μmol): 1.10 µmol
[B]/[A] (O2 uptake / charged substrate) ([3]; substrate 2.50 μmol): 0.92
Amount of O2 uptake [B] ([3]; substrate 2.50 μmol): 2.31 µmol
[B]/[A] (O2 uptake / charged substrate) ([3]; substrate 5.00 μmol): 0.93
Amount of O2 uptake [B] ([3]; substrate 5.00 μmol): 4.67 µmol
hydrogen peroxide produced from 1 mol of substrate (concluded stoichiometry) [5]: 1 mol
[B']/[A'] (hydrogen peroxide produced / charged substrate) ([5]; substrate 0.045 μmol): 0.78
Amount of hydrogen peroxide [B'] ([5]; substrate 0.045 μmol): 0.035 µmol
[B']/[A'] (hydrogen peroxide produced / charged substrate) ([5]; substrate 0.090 μmol): 0.93
Amount of hydrogen peroxide [B'] ([5]; substrate 0.090 μmol): 0.084 µmol
[B']/[A'] (hydrogen peroxide produced / charged substrate) ([5]; substrate 0.180 μmol): 0.93
Amount of hydrogen peroxide [B'] ([5]; substrate 0.180 μmol): 0.168 µmol

SMILES: C[N+](C)(C)CC(=O)O [betaine]
Substrate specificity (relative activity %) [1]: 0%
Substrate specificity (relative activity %) [2]: 0%

SMILES: NCCO [ethanolamine hydrochloride]
Substrate specificity (relative activity %) [1]: 0%
Substrate specificity (relative activity %) [2]: 0%

SMILES: NCC(=O)O [glycine]
Substrate specificity (relative activity %) [1]: 0%
Substrate specificity (relative activity %) [2]: 0%

Source: patent US4245050A, “Process for the preparation of choline oxidase by fermentation” (Kyowa Hakko Kogyo Co., Ltd., priority 1976, dated 1981)
